{
  "source": "patent US9695155B2",
  "about": "“Herbicidal substituted pyrimidinyloxy benzene compounds” (E. I. DU PONT DE NEMOURS AND COMPANY, priority 2013, dated 2017)",
  "key": {"barnyardgrass": {"tested_on": "barnyardgrass", "assay": "Test A preemergence", "type": "in vivo, Echinochloa crus-galli", "method_in_brief": "(§1)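 Visual 0–100 rating (100 = complete control) taken about 10 d post-treatment relative to untreated checks. Preemergence: directed soil spray on sown loam/sand pots. Postemergence: seedlings 2–10 cm, 1–2 leaf. Non-phytotoxic solvent formulation with surfactant.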"}, "pigweed [1]": {"tested_on": "pigweed", "assay": "Test A preemergence", "type": "in vivo, Amaranthus retroflexus", "method_in_brief": "as §1"}, "giant foxtail [2]": {"tested_on": "giant foxtail", "assay": "Test A postemergence", "type": "in vivo, Setaria faberii", "details": "0 to 100 scale where 0 is no effect and 100 is complete control", "method_in_brief": "as §1"}, "pigweed [3]": {"tested_on": "pigweed", "assay": "Test A postemergence", "type": "in vivo, Amaranthus retroflexus", "details": "0 to 100 scale where 0 is no effect and 100 is complete control", "method_in_brief": "as §1"}, "corn [4]": {"tested_on": "corn", "assay": "Test A postemergence", "type": "in vivo, Zea mays", "method_in_brief": "as §1"}, "large (Lg) crabgrass": {"tested_on": "large (Lg) crabgrass", "assay": "Test C preemergence", "type": "in vivo, Digitaria sanguinalis", "details": "for Crabgrass, Large plant response rating: preemergence", "method_in_brief": "(§2)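 Plants were kept under greenhouse conditions for 13–15 days following spray. Pre-emergent application went to soil (loam–sand), post-emergent to foliage at 1–4 leaves. Evaluation: visual, percent control against untreated checks.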"}, "johnsongrass [5]": {"tested_on": "johnsongrass", "assay": "Test C preemergence", "type": "in vivo, Sorghum halepense", "details": "for Johnsongrass plant response rating: preemergence", "method_in_brief": "as §2"}, "lambsquarters": {"tested_on": "lambsquarters", "assay": "Test C preemergence", "type": "in vivo, Chenopodium album", "details": "for Lambsquarters plant response rating: preemergence", "method_in_brief": "as §2"}, "ragweed": {"tested_on": "ragweed", "assay": "Test C preemergence", "type": "in vivo, Ambrosia elatior", "details": "for Ragweed plant response rating: preemergence", "method_in_brief": "as §2"}, "galium": {"tested_on": "galium", "assay": "Test C postemergence", "type": "in vivo, Galium aparine", "details": "for Plant response rating, Galium: Postemergence", "method_in_brief": "as §2"}, "corn [6]": {"tested_on": "corn", "assay": "Test C postemergence", "type": "in vivo, Zea mays", "details": "for Plant response rating, Corn: Postemergence", "method_in_brief": "as §2"}, "giant foxtail [7]": {"tested_on": "giant foxtail", "assay": "Test C postemergence", "type": "in vivo, Setaria faberii", "details": "for Plant response rating, Foxtail, Giant: Postemergence", "method_in_brief": "as §2"}, "johnsongrass [8]": {"tested_on": "johnsongrass", "assay": "Test C postemergence", "type": "in vivo, Sorghum halepense", "details": "for Plant response rating, Johnsongrass: Postemergence", "method_in_brief": "as §2"}, "kochia": {"tested_on": "kochia", "assay": "Test C postemergence", "type": "in vivo, Kochia scoparia", "details": "for Plant response rating, Kochia: Postemergence", "method_in_brief": "as §2"}, "chickweed": {"tested_on": "chickweed", "assay": "Test C postemergence", "type": "in vivo, Stellaria media", "details": "for Plant response rating, Chickweed: Postemergence", "method_in_brief": "as §2"}, "[9]": {"details": "125 g ai/ha, 0 to 100 scale where 0 is no effect and 100 is complete control"}, "[10]": {"details": "500 g ai/ha, 0 to 100 scale, 0 no effect, 100 complete control, approx. 10 days"}, "[11]": {"details": "16 g ai/ha, scale 0 to 100 (0 no effect, 100 complete control)"}, "[12]": {"details": "62 g ai/ha, scale 0 (no effect) to 100 (complete control)"}, "[13]": {"details": "125 g ai/ha, scale 0 (no effect) to 100 (complete control)"}, "[14]": {"details": "Preemergence, 31 g ai/ha, scale 0 to 100, 0 no effect, 100 complete control"}, "[15]": {"details": "16 g ai/ha, postemergence, visual rating, scale 0 to 100 (0 no effect, 100 complete control), 13 to 15 days"}, "[16]": {"details": "31 g ai/ha, scale 0 to 100 (0 no effect, 100 complete control), 13 to 15 days"}, "[17]": {"details": "62 g ai/ha, scale 0 to 100 (0 no effect, 100 complete control)"}},
  "data": [
    {"smiles": "CCOc1cn(-c2c(Br)cccc2Oc2ncc(Cl)cn2)nn1", "note": "[Compound 84]", "values": [
      {"measurement": "Plant response rating, Barnyardgrass", "setting": "barnyardgrass; [9]", "result": 50},
      {"measurement": "Barnyardgrass plant response rating", "setting": "barnyardgrass; [10]", "result": 90},
      {"measurement": "Plant response rating, Pigweed", "setting": "pigweed [1]; [9]", "result": 100},
      {"measurement": "Pigweed plant response rating", "setting": "pigweed [1]; [10]", "result": 100},
      {"measurement": "Plant response rating, Foxtail, Giant", "setting": "giant foxtail [2]; 125 g ai/ha", "result": 100},
      {"measurement": "Plant response rating, Foxtail, Giant", "setting": "giant foxtail [2]; 500 g ai/ha", "result": 100},
      {"measurement": "Plant response rating, Pigweed", "setting": "pigweed [3]; 125 g ai/ha", "result": 100},
      {"measurement": "Plant response rating, Pigweed", "setting": "pigweed [3]; 500 g ai/ha", "result": 100},
      {"measurement": "Plant response rating, Corn", "setting": "corn [4]; [9]", "result": 20},
      {"measurement": "Plant response rating, Corn", "setting": "corn [4]; 500 g ai/ha, 0 to 100 scale, 0 no effect, 100 complete control", "result": 70},
      {"measurement": "Crabgrass, Large plant response rating", "setting": "large (Lg) crabgrass; [11]", "result": 45},
      {"measurement": "Crabgrass, Large plant response rating", "setting": "large (Lg) crabgrass; [12]", "result": 100},
      {"measurement": "Crabgrass, Large plant response rating", "setting": "large (Lg) crabgrass; [13]", "result": 100},
      {"measurement": "Plant response rating, Crabgrass, Large", "setting": "large (Lg) crabgrass; [14]", "result": 98},
      {"measurement": "Johnsongrass plant response rating", "setting": "johnsongrass [5]; [11]", "result": 0},
      {"measurement": "Johnsongrass plant response rating", "setting": "johnsongrass [5]; [12]", "result": 40},
      {"measurement": "Johnsongrass plant response rating", "setting": "johnsongrass [5]; [13]", "result": 85},
      {"measurement": "Plant response rating, Johnsongrass", "setting": "johnsongrass [5]; [14]", "result": 20},
      {"measurement": "Lambsquarters plant response rating", "setting": "lambsquarters; [11]", "result": 75},
      {"measurement": "Lambsquarters plant response rating", "setting": "lambsquarters; [12]", "result": 100},
      {"measurement": "Lambsquarters plant response rating", "setting": "lambsquarters; [13]", "result": 100},
      {"measurement": "Plant response rating, Lambsquarters", "setting": "lambsquarters; [14]", "result": 85},
      {"measurement": "Ragweed plant response rating", "setting": "ragweed; [11]", "result": 0},
      {"measurement": "Ragweed plant response rating", "setting": "ragweed; [12]", "result": 60},
      {"measurement": "Ragweed plant response rating", "setting": "ragweed; [13]", "result": 85},
      {"measurement": "Plant response rating, Ragweed", "setting": "ragweed; [14]", "result": 60},
      {"measurement": "Galium plant response rating", "setting": "galium; [15]", "result": 60},
      {"measurement": "Plant response rating (0 to 100), Galium", "setting": "galium; 125 g ai/ha, postemergence", "result": 95},
      {"measurement": "Plant response rating, Galium", "setting": "galium; [16]", "result": 75},
      {"measurement": "Plant response rating, Galium", "setting": "galium; [17]", "result": 60},
      {"measurement": "Corn plant response rating", "setting": "corn [6]; [15]", "result": 0},
      {"measurement": "Plant response rating (0 to 100), Corn", "setting": "corn [6]; 125 g ai/ha, postemergence", "result": 5},
      {"measurement": "Plant response rating, Corn", "setting": "corn [6]; [16]", "result": 0},
      {"measurement": "Plant response rating, Corn", "setting": "corn [6]; [17]", "result": 0},
      {"measurement": "Foxtail, Giant plant response rating", "setting": "giant foxtail [7]; [15]", "result": 40},
      {"measurement": "Plant response rating (0 to 100), Foxtail, Giant", "setting": "giant foxtail [7]; 125 g ai/ha, postemergence", "result": 50},
      {"measurement": "Plant response rating, Foxtail, Giant", "setting": "giant foxtail [7]; [16]", "result": 5},
      {"measurement": "Plant response rating, Foxtail, Giant", "setting": "giant foxtail [7]; [17]", "result": 5},
      {"measurement": "Johnsongrass plant response rating", "setting": "johnsongrass [8]; [15]", "result": 0},
      {"measurement": "Plant response rating (0 to 100), Johnsongrass", "setting": "johnsongrass [8]; 125 g ai/ha, postemergence", "result": 0},
      {"measurement": "Plant response rating, Johnsongrass", "setting": "johnsongrass [8]; [16]", "result": 0},
      {"measurement": "Plant response rating, Johnsongrass", "setting": "johnsongrass [8]; [17]", "result": 0},
      {"measurement": "Kochia plant response rating", "setting": "kochia; [15]", "result": 55},
      {"measurement": "Plant response rating (0 to 100), Kochia", "setting": "kochia; 125 g ai/ha, postemergence", "result": 80},
      {"measurement": "Plant response rating, Kochia", "setting": "kochia; [16]", "result": 55},
      {"measurement": "Plant response rating, Kochia", "setting": "kochia; [17]", "result": 70},
      {"measurement": "Chickweed plant response rating", "setting": "chickweed; [15]", "result": 10},
      {"measurement": "Plant response rating (0 to 100), Chickweed", "setting": "chickweed; 125 g ai/ha, postemergence", "result": 50},
      {"measurement": "Plant response rating, Chickweed", "setting": "chickweed; [16]", "result": 10},
      {"measurement": "Plant response rating, Chickweed", "setting": "chickweed; [17]", "result": 40}
    ]}
  ]
}
